The results in this text go back to patent US6313111A, “Substituted 6H-1,3,4-thiadiazine-2-amines, the use thereof as anaesthetising, cardiovascular and hypometabolic agents, and pharmaceutical composition containing them” (priority 1998, dated 2001).

A short description of this test: rectal (body) temperature of mice measured with medicinal electrothermometer TREM-1. In kind it is in vivo, mice of the BALB line. The protocol: In all cases tests were carried out on mice of the BALB line of 3-4 month age. […] In the case of water-soluble compounds, aqueous solutions of the test compounds were injected intraperitoneally (i.p.), while water-insoluble compounds were introduced orally (p.o.).
Rectal temperature changes (absolute magnitues in ° C.) were measured using a medicinal electrothermometer TREM-1 (Table 1). The rate of oxygen consumption was monitored by measuring concentration of oxygen in a closed testing unit with optic-acoustic gas analyser MN 5130. The data on oxygen consumption are given in percents relative to the starting content of oxygen taken as 100%. (Table 2).
Rectal temperature of mice was followed in dynamics after 5, 15, 30, 60, 120, 180, 240, 300, and 360 minutes (Table 3). […] The same decrease in temperature at 190 mg/kg dosage was reached after 15 minutes; in 1.5 hours it reached 22-25° C. and maintained this level over the next 5 hours, that is 13-17° C. below the initial value. After one day, body temperature was restored to the value of 94-96% of initial.

Where [1] appears, read: i.p., 0 min, mg/kg: cpd 1 190.0, cpd 2 178.0, cpd 5 190.0, cpd 6 160.0.
Setting [2] is: i.p., 30 min, mg/kg: cpd 1 190.0, cpd 2 178.0, cpd 5 190.0, cpd 6 160.0.
Setting [3] is: i.p., 60 min, mg/kg: cpd 1 190.0, cpd 2 178.0, cpd 5 190.0, cpd 6 160.0.
The mark [4] stands for this setting: i.p., 90 min, mg/kg: cpd 1 190.0, cpd 2 178.0, cpd 6 160.0.
Setting [5] is: i.p., 120 min, mg/kg: cpd 1 190.0, cpd 2 178.0, cpd 5 190.0, cpd 6 160.0.
Where [6] appears, read: i.p., 180 min, mg/kg: cpd 1 190.0, cpd 2 178.0, cpd 5 190.0, cpd 6 160.0.
The mark [7] stands for this setting: i.p., 240 min, mg/kg: cpd 1 190.0, cpd 2 178.0, cpd 5 190.0, cpd 6 160.0.
Where [8] appears, read: i.p., 300 min, mg/kg: cpd 1 190.0, cpd 2 178.0, cpd 6 160.0.
[9] abbreviates: p.o., 0 min, mg/kg: cpd 4 437.0, cpd 5 328.0, cpd 6 407.0, cpd 8 435.0.
Setting [10] is: p.o., 30 min, mg/kg: cpd 4 437.0, cpd 5 328.0, cpd 6 407.0, cpd 8 435.0.
Where [11] appears, read: p.o., 60 min, mg/kg: cpd 4 437.0, cpd 5 328.0, cpd 6 407.0, cpd 8 435.0.
The mark [12] stands for this setting: p.o., 90 min, mg/kg: cpd 4 437.0, cpd 5 328.0, cpd 6 407.0.
Where [13] appears, read: p.o., 120 min, mg/kg: cpd 4 437.0, cpd 5 328.0, cpd 7 407.0, cpd 8 435.0.
The mark [14] stands for this setting: p.o., 180 min, mg/kg: cpd 4 437.0, cpd 7 407.0, cpd 8 435.0.
[15] abbreviates: p.o., 240 min, mg/kg: cpd 4 437.0, cpd 7 407.0, cpd 8 435.0.
Where [16] appears, read: p.o., 300 min, mg/kg: cpd 7 407.0, cpd 8 435.0.

For `CS(=O)(=O)O.c1ccc(C2=NN=C(N3CCOCC3)SC2)cc1` [Compound 2, 2-Morpholino-5-phenyl-6H-1,3,4-thiadiazine, mesilate], the body temperature is 38.0 °C under setting [1]; 30.1 °C under setting [2]; 26.7 °C under setting [3]; 25.5 °C under setting [4]; 26.9 °C under setting [5]; 31.0 °C under setting [6]. Further, the body temperature was found to be 35.4 °C under setting [7] and 35.4 °C under setting [8].
`Br.Brc1cccc(C2=NN=C(N3CCOCC3)SC2)c1` [Compound 4, 2-Morpholino-5-(3-bromophenyl)-6H-1,3,4-thiadiazine, hydrobromide] yielded a body temperature under setting [9] of 38.0 °C; a body temperature under setting [10] of 35.9 °C; a body temperature under setting [11] of 33.8 °C; a body temperature under setting [12] of 33.5 °C; a body temperature under setting [13] of 32.9 °C; a body temperature under setting [14] of 33.1 °C. This compound had a body temperature under setting [15] of 32.8 °C.
For the compound `Br.c1ccc(C2=NN=C(N3CCSCC3)SC2)cc1` [Compound 5, 2-Thiomorpholino-5-phenyl-6H-1,3,4-thiadiazine, hydrobromide], the body temperature came out at 38.0 °C under setting [1]; 28.0 °C under setting [2]; 27.1 °C under setting [3]; 25.0 °C under setting [5]; 23.3 °C under setting [6]; 23.6 °C under setting [7]. Moreover, the body temperature runs as follows: under setting [9], 38.0 °C; under setting [10], 27.5 °C; under setting [11], 26.0 °C; under setting [12], 24.0 °C; under setting [13], 24.0 °C.
In the case of `CS(=O)(=O)O.c1ccc(C2=NN=C(N3CCSCC3)SC2)cc1` [Compound 6, 2-Thiomorpholino-5-phenyl-6H-1,3,4-thiadiazine, mesilate], the body temperature reads like this: under setting [1], 37.9 °C; under setting [2], 30.6 °C; under setting [3], 26.9 °C; under setting [4], 26.3 °C; under setting [5], 25.8 °C; under setting [6], 27.4 °C. This compound displayed a body temperature under setting [7] of 28.9 °C; a body temperature under setting [8] of 30.9 °C; a body temperature under setting [9] of 37.7 °C; a body temperature under setting [10] of 34.0 °C; a body temperature under setting [11] of 33.4 °C; a body temperature under setting [12] of 32.6 °C.
Regarding `Br.CCOc1ccc(C2=NN=C(N3CCSCC3)SC2)cc1` [Compound 7, 2-Thiomorpholino-5-(4-ethoxyphenyl)-6H-1,3,4-thiadiazine, hydrobromide], the body temperature under setting [13] is 33.5 °C, the body temperature under setting [14] came out at 32.3 °C, the body temperature under setting [15] stood at 30.6 °C and the body temperature under setting [16] is 30.6 °C.
With `Br.Brc1cccc(C2=NN=C(N3CCSCC3)SC2)c1` [Compound 8, 2-Thiomorpholino-5-(3-bromophenyl)-6H-1,3,4-thiadiazine, hydrobromide], the body temperature reads like this: under setting [9], 38.1 °C; under setting [10], 35.2 °C; under setting [11], 35.0 °C; under setting [13], 33.4 °C; under setting [14], 33.5 °C; under setting [15], 32.3 °C. Under setting [16], this compound yielded a body temperature of 33.9 °C.
